# Measurements reported in patent USRE47493E1, “Substituted bicyclic dihydropyrimidinones and their use as inhibitors of neutrophil elastase activity” (Boehringer Ingelheim International GmbH, priority 2014, dated 2019).
# Read-outs that look alike come from different tables or passages of the source.
# Key:
# [1] = Assay for Determination of Aqueous Solubility; format: physicochemical; conditions: McIlvaine buffer pH 6.8, 2.5% DMSO; for Aqueous solubility: 24 h
# Procedure: Assay for Determination of Aqueous Solubility
# The aqueous solubility of a compound is determined by comparing the amount dissolved in aqueous buffer (containing 2.5% DMSO) to the amount dissolved in an acetonitrile/water (1/1) solution. Starting from a 10 mM DMSO stock solution, aliquots are diluted with acetonitrile/water (1/1) and Mcllvaine buffer pH 6.8, respectively. After 24 h of shaking, the solutions or suspensions are filtered and analyzed by LC-UV. The amount dissolved in buffer is compared to the amount dissolved in the acetonitrile/water (1/1) solution. Solubility is measured from 0.001 to 0.125 mg/ml at a DMSO concentration of 2.5%. If more than 90% of the compound is dissolved in buffer, the value is marked with “>”.
# [2] = biological target: Human neutrophil elastase (Homo sapiens (Human), UniProt P08246); experiment: Human Neutrophil Elastase Assay; format: biochemical
# Procedure: Human Neutrophil Elastase Assay
# Materials: Human neutrophil elastase was purchased from Calbiochem (Cat.No.: 324681) and the elastase substrate MeOSuc-Ala-Ala-Pro-Val-AMC from Bachem (Cat.No.: I-1270). All other materials were of the highest grade commercially available.
# The following buffers were used: Compound buffer: 100 mM Tris, 500 mM NaCl, adjusted to pH 7.5; Assay buffer: 100 mM Tris, 500 mM NaCl, adjusted to pH 7.5, containing 0.01% BSA.
# Assay conditions: Test compounds were prediluted in DMSO and subsequently in compound buffer (5% DMSO final). 5 μL of these compound dilutions were mixed with 10 μl Neutrophil elastase (9 ng/ml in assay buffer) in a black 384 well OptiPlate (Perkin Elmer, Cat No.: 6007270) and incubated for 15 min at room temperature. Subsequently 10 μL substrate solution in assay buffer were added (250 nM final concentration) and the plates were incubated for 60 min at room temperature. After inactivation of the enzyme, fluorescence intensities were measured at 380 nm excitation and 460 nm emission wavelengths.
# Each plate contains wells with a high value control (DMSO+enzyme+substrate) and wells with a low value control (DMSO+inactivated enzyme+substrate). IC50 values were estimated using a sigmoidal concentration response curve with variable slope. Means of low values were taken as 0%, means of high values as 100%.
# [3] = Assay for Determination of Drug Transport Across Human CACO-2 Cells; format: in vitro ADME; conditions: human; for efflux ratio at 2 h, 10 nM: pH 7.2, Caco-2, PEBA/PEAB; for Papp A→B at 10 nM: Caco-2, apical-to-basal, read-out: PEAB; for Papp A→B at 10 nM / Papp B→A at 10 nM: pH 7.2, 37° C.; for Papp B→A at 10 nM: Caco-2, basal-to-apical, read-out: PEBA
# Text: Assay for Determination of Drug Transport Across Human CACO-2 Cells
# The assay provides information on the potential of a compound to pass the cell membrane, on the extent of oral absorption as well as on whether the compound is actively transported by uptake and/or efflux transporters. For the measurement of permeability across polarized, confluent human cancer colon carcinoma cells 2 (Caco-2) cell monolayers grown on permeable filter supports are used as the in vitro absorption model. Apparent permeability coefficients (PE) of the compounds across the Caco-2 monolayers are measured (pH 7.2, 37° C.) in apical-to-basal (AB) (absorptive) and basal-to-apical (BA) (secretory) transport direction. AB permeability (PEAB) represents drug absorption from the intestine into the blood and BA permeability (PEBA) drug secretion from the blood back into the intestine via both passive permeability as well as active transport mechanisms mediated by efflux and uptake transporters that are expressed on the Caco-2 cells. The compounds are assigned to permeability/absorption classes by comparison of the AB permeabilities with the AB permeabilities of reference compounds with known in vitro permeability and oral absorption in the human. Identical or similar permeabilities in both transport directions indicate passive permeation, vectorial permeability points to additional active transport mechanisms. […] Active transport is concentration-dependently saturable.
# Caco-2 cells (1−2*10^5 cells/cm^2 area) are seeded on filter inserts (Costar transwell polycarbonate or PET filters, […] pore size) and cultured (DMEM) for 10 to 25 days. Compounds are dissolved in appropriate solvent (like DMSO, 1-20 mM stock solutions). Stock solutions are diluted with HTP-4 buffer (128.13 mM NaCl, 5.36 mM KCl, 1 mM MgSO4, 1.8 mM CaCl2, 4.17 mM NaHCO3, 1.19 mM Na2HPO4×7H2O, 0.41 mM NaH2PO4×H2O, 15 mM HEPES, 20 mM glucose, pH 7.2) to prepare the transport solutions (typically […] compound, final DMSO <=0.5%). The transport solution (TL) is applied to the apical or basolateral donor side for measuring A-B or B-A permeability (3 filter replicates), respectively. The receiver side contains HTP-4 buffer supplemented with 2% BSA. Samples are collected at the start and end of experiment from the donor and at various time intervals for up to 2 hours also from the receiver side for concentration measurement by LC-MS/MS or scintillation counting. Sampled receiver volumes are is replaced with fresh receiver solution.
# The apparent permeability coefficients (PEAB and PEBA) and efflux ratios (PEBA/PEAB) of selected compounds in the Caco-2 drug transport assay described above are listed in Table 17.
# [4] = human neutrophil elastase, substrate MeOSuc-Ala-Ala-Pro-Val-AMC, pH 7.5, read-out: IC50
# Sequence of Human neutrophil elastase (P08246 30-267): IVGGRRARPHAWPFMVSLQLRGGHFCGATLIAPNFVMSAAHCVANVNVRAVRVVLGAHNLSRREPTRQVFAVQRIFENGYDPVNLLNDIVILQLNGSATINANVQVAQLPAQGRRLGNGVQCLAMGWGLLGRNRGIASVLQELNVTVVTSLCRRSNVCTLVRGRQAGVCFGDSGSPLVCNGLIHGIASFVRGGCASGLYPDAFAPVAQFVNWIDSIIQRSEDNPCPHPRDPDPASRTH
SMILES,Aqueous solubility [1] [µg/mL],"IC50 [2, 4] [nM]","IC50 ([2]; read-out: IC50, inhibition of neutrophil elastase) [nM]","efflux ratio at 2 h, 10 nM [3]",Papp A→B at 10 nM [3] [×10⁻⁶ cm/s],Papp B→A at 10 nM [3] [×10⁻⁶ cm/s],"solubility at 24 h ([1]; McIlvaine buffer pH 6.8 with 2.5% DMSO, aqueous buffer, kinetic from dmso stock) [µg/mL]"
"CS(=O)(=O)c1cc(C#N)ccc1[C@H]1NC(=O)N(c2cccc(C(F)(F)F)c2)C2=C1C(=O)CCC2 (single isomer, unassigned) [Example 18A]",78,4.8,4.8,4.2,20.9,88.2,
"CS(=O)(=O)c1cc(C#N)ccc1[C@H]1NC(=O)N(c2cccc(C(F)F)c2)C2=C1C(=O)CCC2 (single isomer, unassigned) [Example 19A]",92,7.3,,6.7,11.4,76.7,
"CNC(=O)N1C(=O)N(c2cccc(C(F)(F)F)c2)C2=C(C(=O)CCC2)[C@H]1c1ccc(C#N)cc1S(C)(=O)=O (single isomer, unassigned) [Example 47A]",86,< 1,,5.4,9.86,53.5,
"CCS(=O)(=O)c1cc(C#N)ccc1[C@H]1NC(=O)N(c2cccc(C(F)(F)F)c2)C2=C1C(=O)CCC2 (single isomer, unassigned) [Example 54A]",59,3.2,,2.4,26,61.7,
CC(C)(O)CNC(=O)N1C(=O)N(c2cccc(C(F)(F)F)c2)C2=C(C(=O)CCC2)C1c1ccc(C#N)cc1 (centres unmarked) [Example 70.9],,1.7,,3.2,30.3,96.1,12
